Measured values published in patent US20110218188A1, “SUBSTITUTED (PYRIDYL)-AZINYLAMINE DERIVATIVES AS FUNGICIDES” (priority 2008, published 2011).
Marks after values point to notes of the source that are not given here.

Experiment: Measurement of logP values by HPLC on reversed phase columns (EEC directive 79/831 Annex V.A8)
Format: physicochemical

| SMILES | logP (pH 2.7) | also measured |
| --- | --- | --- |
| O=C(NCCCN1CCCCCC1=O)c1cc(Nc2nccc(-c3ccnc(C(=O)NCCCN4CCCCCC4=O)c3)n2)ccn1 [Example A21] | 2.33 | – |
| CC(=NNCC(F)(F)F)c1cc(-c2ncnc(Nc3cccc(Cl)c3)n2)ccn1 [Example B76] | 3.58 | – |
| CCN(C)C(=O)c1cc(-c2ncnc(Nc3cc(F)ccc3F)n2)ccn1 [Example B358] | 2.39 | – |
| CC(C)CN(C)C(=S)c1cc(-c2ncnc(Nc3ccc(F)c(C(F)F)c3)n2)ccn1 [Example B335] | 3.71 | – |
| NC(=S)c1cc(-c2ncnc(Nc3cccc(C(F)F)c3)n2)ccn1 [B320] | 3.05 | – |
| CC#CCON=C(C)c1cc(-c2ncnc(Nc3cccc(Cl)c3)n2)ccn1 (mixture of isomers) [Example B36] | 4.41 | – |
| CN(CCC#N)C(=O)c1cc(-c2ncnc(Nc3ccc(Cl)c(C(F)F)c3)n2)ccn1 [Example B389] | 2.69 | – |
| COC(=O)c1cc(-c2ncnc(Nc3cccc(C(F)F)c3)n2)ccn1 [B406] | 2.55 | – |
| COCCCNC(=O)c1cc(-c2ncnc(Nc3cccc(Cl)c3)n2)ccn1 [B88] | 3.15 | – |
| CN(CC1CC1)C(=O)c1cc(-c2ncnc(Nc3cccc(Cl)c3)n2)ccn1 [Example B133] | 3.15 | – |
| CN(CCC#N)C(=O)c1cc(-c2ncnc(Nc3cccc(C(F)F)c3)n2)ccn1 [Example B284] | 2.25 | – |
| CC#CCON=C(CC)c1cc(-c2ncnc(Nc3cccc(Cl)c3)n2)ccn1 (mixture of isomers) [B53] | 4.91 | – |
| CN(CC1CC1)C(=S)c1cc(-c2ncnc(Nc3cccc(Cl)c3)n2)ccn1 [Example B330] | 3.76 | – |
| CC(C)CN(C)C(=O)c1cc(-c2ncnc(Nc3cccc(F)c3)n2)ccn1 [Example B6] | 2.92 | – |
| CCN(C)C(=O)c1cc(-c2ncnc(Nc3cccc(SC)c3)n2)ccn1 [Example B222] | 2.6 | – |
| CCN(CC)C(=O)c1cc(-c2ncnc(Nc3cccc(C(F)F)c3)n2)ccn1 [Example B285] | 2.73 | – |
| O=C(c1cccc(-c2ccnc(Nc3ccnc(Cl)c3)n2)n1)N1CCC1 [Example A35] | – | logP (pH 2.3): 2.21^[b] |
| COCC(C)NC(=O)c1cc(-c2ncnc(Nc3cccc(SC)c3)n2)ccn1 (centres unmarked) [B212] | 3.31 | – |
| CC(C)N(C)C(=O)c1cc(-c2ncnc(Nc3ccc(F)c(C(F)F)c3)n2)ccn1 [Example B396] | 2.78 | – |
| O=C(NC1CCS(=O)(=O)C1)c1cc(-c2ncnc(Nc3cccc(Cl)c3)n2)ccn1 (centres unmarked) [B101] | 2.66 | – |

| SMILES | logP (pH 2.7) | also measured |
| --- | --- | --- |
| CSc1cccc(Nc2ncnc(-c3ccnc(C(=O)N4CCCC4)c3)n2)c1 [B211] | 2.82 | – |
| O=C(O)c1cc(-c2ncnc(Nc3cccc(C(F)F)c3)n2)ccn1 [B407] | 1.98 | – |
| CCCN(C)C(=O)c1cc(-c2ncnc(Nc3ccc(OC)nc3)n2)ccn1 [Example C5] | – | logP (pH 7.8): 2.11^[c] |
| CN(CCC#N)C(=O)c1cc(-c2ncnc(Nc3cccc(C#N)c3)n2)ccn1 [Example B291] | 1.99 | – |
| O=C(c1cc(Nc2nccc(-c3ccnc(C(=O)N4CCCCC4)c3)n2)ccn1)N1CCCCC1 [Example A6] | 1.63 | – |
| O=C(c1cc(-c2ncnc(Nc3cccc(Cl)c3)n2)ccn1)N1CCCC(CO)C1 (centres unmarked) [Example B145] | 2.3 | – |
| CCCC(C)NC(=O)c1cc(-c2ncnc(Nc3ccc(C)c(Cl)c3)n2)ccn1 (centres unmarked) [B235] | 5 | – |
| CC(=NO)c1cc(-c2ncnc(Nc3cccc(Cl)c3)n2)ccn1 (mixture of isomers) [Example B74] | 2.8 | – |
| CC(C)N(C)C(=O)c1cc(-c2ncnc(Nc3cccc(OC(F)F)c3)n2)ccn1 [Example B302] | 2.78 | – |
| CC(CN(C)C)NC(=O)c1cc(-c2ncnc(Nc3cccc(Cl)c3)n2)ccn1 (centres unmarked) [B66] | 1.72 | – |
| CCCC(C)NC(=O)c1cc(-c2ncnc(Nc3cccc(SC)c3)n2)ccn1 (centres unmarked) [B221] | 4.44 | – |
| CCN(CC1CCCO1)C(=O)c1cc(-c2ncnc(Nc3cccc(Cl)c3)n2)ccn1 (centres unmarked) [Example B167] | 3.09 | – |
| C#CC(C)ON=C(CC)c1cc(-c2ncnc(Nc3cccc(Cl)c3)n2)ccn1 (mixture of isomers) [B42] | 4.87 | – |
| CC(C)CN(C)C(=O)c1cc(-c2ncnc(Nc3cccc(OC(F)(F)F)c3)n2)ccn1 [Example B267] | 3.73 | – |
| CN(CC1CC1)C(=O)c1cc(-c2ncnc(Nc3ccc(F)c(C(F)F)c3)n2)ccn1 [B411] | 2.98 | – |
| Cc1ccc(Nc2ncnc(-c3ccnc(C(=O)NC4CC4)c3)n2)cc1Cl [Example B226] | 3.62 | – |
| COCCN(C)C(=O)c1cc(-c2ncnc(Nc3cccc(OC(F)(F)F)c3)n2)ccn1 [Example B270] | 2.86 | – |
| CN(C)C(=S)c1cc(-c2ncnc(Nc3cccc(C(F)F)c3)n2)ccn1 [B423] | 2.66 | – |
| CN(CC1CC1)C(=O)c1cc(-c2ncnc(Nc3ccsc3)n2)ccn1 [Example C15] | 2.53 | – |
| CN(CCC#N)C(=O)c1cc(-c2ncnc(Nc3ccc(F)cc3)n2)ccn1 [Example B14] | 2.14 | – |

| SMILES | logP (pH 2.7) | also measured |
| --- | --- | --- |
| CCNC(=O)c1cc(-c2ncnc(Nc3cccc(Cl)c3)n2)ccn1 [B92] | 3.17 | – |
| O=C(NCC(F)(F)F)c1cc(-c2ncnc(Nc3cccc(Cl)c3)n2)ccn1 [B117] | 3.67 | – |
| O=CNCCCNC(=O)c1cc(-c2ncnc(Nc3cccc(Cl)c3)n2)ccn1 [B178] | 2.26 | – |
| CCCN(CC1CC1)C(=O)c1cc(-c2ncnc(Nc3cccc(Cl)c3)n2)ccn1 [Example B159] | 3.94 | – |
| CCCN(C)C(=O)c1cc(Nc2nccc(-c3ccnc(C(=O)N(C)CCC)c3)n2)ccn1 [Example A14] | 1.59 | – |
| CN(CCC#N)C(=O)c1cc(-c2ccnc(Nc3ccnc(Cl)c3)n2)ccn1 [Example A24] | 1.78 | – |
| O=C(c1cc(-c2ccnc(Nc3ccnc(Cl)c3)n2)ccn1)N1CC=CCC1 [Example A2] | 2.2 | – |
| CCN(CC)C(=O)c1cc(-c2ncnc(Nc3ccc(OC)nc3)n2)ccn1 [Example C4] | – | logP (pH 7.8): 2.11^[c] |
| NC(=NO)c1cc(-c2ncnc(Nc3cccc(Cl)c3)n2)ccn1 [Example B78, 4-{4-[(3-chlorophenyl)amino]-1,3,5-triazin-2-yl}-N′-hydroxypyridine-2-carboximidamide] | – | chromatographic logP (pH 2.7): 2.28 |
| CC(C)CN(C)C(=O)c1cc(-c2ncnc(Nc3ccc(Cl)c(C(F)F)c3)n2)ccn1 [Example B388] | 3.58 | – |
| CCN(CC)C(=O)c1cc(-c2ncnc(Nc3cccc(OC(F)(F)C(F)F)c3)n2)ccn1 [Example B348] | 3.29 | – |
| CCN(C)C(=S)c1cc(-c2ncnc(Nc3cccc(OC(F)(F)F)c3)n2)ccn1 [Example B271] | 3.57 | – |
| NC(=S)c1cc(-c2ncnc(Nc3cccc(Cl)c3)n2)ccn1 [Example B119] | 3.12 | – |
| O=C(NC1CC1)c1cc(-c2ncnc(Nc3ccc(F)c(Cl)c3)n2)ccn1 [Example B192] | 3.31 | – |
| CCCN(CCC)C(=O)c1cc(-c2ncnc(Nc3cccc(Cl)c3)n2)ccn1 [Example B124] | 3.89 | – |
| CCC(=NOC)c1cc(-c2ncnc(Nc3cccc(Cl)c3)n2)ccn1 (mixture of isomers) [Example B85] | 4.81 | – |
| Clc1cccc(Nc2ncnc(-c3ccnc(C4=NOCCO4)c3)n2)c1 [Example B187] | 2.63 | – |
| CC(C)N(C)C(=O)c1cc(-c2ncnc(Nc3ccc(F)cc3)n2)ccn1 [Example B21] | 2.55 | – |
| CCN(CC)C(=O)c1cc(-c2ncnc(Nc3cccc(OC(F)F)c3)n2)ccn1 [Example B298] | 2.88 | – |
